Values of other authors, collected in patent publication US20230295183A1, “HOT MELT EXTRUDED SOLID DISPERSIONS CONTAINING A BCL2 INHIBITOR” (Newave Pharmaceutical Inc., priority 2020, published 2023).

Legend:
[1] = test system: xenograft models of small-cell lung cancer and acute lymphoblastic leukemia; details: oral administration, alone
[2] = in vivo
[3] = test system: circulating platelets; details: clinical trial; dose-limiting thrombocytopenia
[4] = biological target: T1, Bcl-w (Homo sapiens, UniProt Q92843)
T1 sequence (Q92843 1-193): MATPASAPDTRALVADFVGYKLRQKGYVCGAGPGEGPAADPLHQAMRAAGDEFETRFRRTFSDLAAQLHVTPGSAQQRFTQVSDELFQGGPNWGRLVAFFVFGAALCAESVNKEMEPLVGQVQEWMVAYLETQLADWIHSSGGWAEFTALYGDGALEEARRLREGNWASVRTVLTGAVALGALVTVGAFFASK

[5] = test system: H345 xenograft; details: 100 mg/kg/day, H345 xenograft model
[6] = test system: SCLC H146 cell line; details: read-out: IC50 against SCLC H146 cell line
[7] = test system: established tumors; details: mouse, in vivo
[8] = test system: RS4;11 xenografts; details: single dose of 100 mg/kg
[9] = test system: CLL; details: read-out: average EC50, apoptosis in CLL
[10] = test system: RS4;11 cells
[11] = biological target: Mcl-1 (Homo sapiens, UniProt Q07820)
Chain of Mcl-1 (Q07820 whole entry): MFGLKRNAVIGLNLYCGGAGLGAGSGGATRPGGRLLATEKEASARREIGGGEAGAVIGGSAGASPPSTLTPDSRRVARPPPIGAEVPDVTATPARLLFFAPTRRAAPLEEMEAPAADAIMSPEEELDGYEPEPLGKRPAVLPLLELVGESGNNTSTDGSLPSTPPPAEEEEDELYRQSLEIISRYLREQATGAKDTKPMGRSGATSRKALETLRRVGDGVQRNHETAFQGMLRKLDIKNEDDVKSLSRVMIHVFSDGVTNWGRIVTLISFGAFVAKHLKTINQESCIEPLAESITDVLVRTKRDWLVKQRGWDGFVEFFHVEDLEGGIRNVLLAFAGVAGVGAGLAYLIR

oral bioavailability [2] | Ki [4] | IC50 [6] | aqueous solubility | EC50 [9] | EC50 [10] | activity to Mcl-1 [11] | SMILES | antitumor effect in xenograft models [1] | effect on number of circulating platelets [3] | TGI [5] | treated tumors indicating at least a 50% reduction in tumor volume [5] | antitumor effect in animal models [7] | maximal tumor growth inhibition [8] | tumor growth delay [8]
orally bioavailable | ≤ 1 nM | 110 nM | – | – | – | – | CC1(C)CCC(c2ccc(Cl)cc2)=C(CN2CCN(c3ccc(C(=O)NS(=O)(=O)c4ccc(N[C@H](CCN5CCOCC5)CSc5ccccc5)c(S(=O)(=O)C(F)(F)F)c4)cc3)CC2)C1 [ABT-263] | complete tumor regressions | rapid, concentration-dependent decrease in the number of circulating platelets | 80% | 20% | – | – | –
not orally bioavailable | – | – | low aqueous solubility | – | – | – | CN(C)CC[C@H](CSc1ccccc1)Nc1ccc(S(=O)(=O)NC(=O)c2ccc(N3CCN(Cc4ccccc4-c4ccc(Cl)cc4)CC3)cc2)cc1[N+](=O)[O-] [ABT-737] | – | – | – | – | causes regression of established tumors | – | –
– | – | – | – | 3 nM | 8 nM | no activity | CC1(C)CCC(CN2CCN(c3ccc(C(=O)NS(=O)(=O)c4ccc(NCC5CCOCC5)c([N+](=O)[O-])c4)c(Oc4cnc5[nH]ccc5c4)c3)CC2)=C(c2ccc(Cl)cc2)C1 [ABT-199] | – | – | – | – | – | 95% | 152%
